In the supplement of paper PMC11451515:

Tests used:
Conditions in all cases: 48 h
[1] = test system: NOMO1; assay: cell viability relative to DMSO control; higher = less cytotoxic
Method in brief: (§1)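 Viability, reported as a per-plate percentage of DMSO wells with cell-free wells as background, came from CellTiter-Glo One luminescence. Reading took place after 48 h at 37°C. Before that, NOMO1 or SEM (500 cells/well) or P12-Ichikawa (1000 cells/well) leukemia cells, adapted for at least four passages in each medium, were seeded in 1536-well plates (5 μl) and pin-dosed with library compounds in DMSO, 47 μM to 0.79 nM over 11 threefold points.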

[2] = test system: P12-Ichikawa; assay: as above
Method in brief: as §1

[3] = test system: SEM cells; assay: as above
Method in brief: as §1

[4] = test system: NOMO1; assay: AUC of viability dose-response curve (% viability x log10 dose units); higher = less sensitive
Method in brief: (§2)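 Library compounds in DMSO were applied for 48 h at 37°C at 11 threefold doses (47 μM to 0.79 nM) to medium-adapted leukemia cells in 1536-well plates holding 500 or 1000 cells/well. Luminescence from CellTiter-Glo One was normalised plate by plate against DMSO and cell-free wells. Area under the curve came from trapezoidal integration of a log-logistic fit, after scaling curves that rose above full viability and discarding those that failed quality control. The fit had four parameters and used log10 doses.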

[5] = test system: P12-Ichikawa; assay: as above
Method in brief: as §2

[6] = test system: SEM cells; assay: as above
Method in brief: as §2

CC(C[N+](C)(C)C)OC(N)=O (stereo unspecified)
cell viability [%]
Conditions	[1]	[2]	[3]
HPLM + 10% dialyzed FBS, 0.000781 µM	128	109	107
HPLM + 10% dialyzed FBS, 0.00234 µM	124	121	114
HPLM + 10% dialyzed FBS, 0.00702 µM	121	116	83.5
HPLM + 10% dialyzed FBS, 0.0211 µM	119	122	98.8
HPLM + 10% dialyzed FBS, 0.0632 µM	131	114	96.1
HPLM + 10% dialyzed FBS, 0.19 µM	128	113	106
HPLM + 10% dialyzed FBS, 0.569 µM	116	120	104
HPLM + 10% dialyzed FBS, 1.71 µM	117	118	116
HPLM + 10% dialyzed FBS, 5.12 µM	119	111	106
HPLM + 10% dialyzed FBS, 15.4 µM	139	110	110
HPLM + 10% dialyzed FBS, 46.1 µM	103	102	97.6
RPMI 5 mM glucose + 10% FBS, 0.000781 µM	115	–	105
RPMI 5 mM glucose + 10% FBS, 0.00234 µM	109	–	105
RPMI 5 mM glucose + 10% FBS, 0.00702 µM	119	–	87
RPMI 5 mM glucose + 10% FBS, 0.0211 µM	106	–	128
RPMI 5 mM glucose + 10% FBS, 0.0632 µM	118	–	117
RPMI 5 mM glucose + 10% FBS, 0.19 µM	108	–	132
RPMI 5 mM glucose + 10% FBS, 0.569 µM	108	–	120
RPMI 5 mM glucose + 10% FBS, 1.71 µM	105	–	124
RPMI 5 mM glucose + 10% FBS, 5.12 µM	100	–	113
RPMI 5 mM glucose + 10% FBS, 15.4 µM	101	–	120
RPMI 5 mM glucose + 10% FBS, 46.1 µM	97.5	–	109
RPMI 5 mM glucose + 10% dialyzed FBS, 0.000781 µM	–	122	116
RPMI 5 mM glucose + 10% dialyzed FBS, 0.00234 µM	–	119	123
RPMI 5 mM glucose + 10% dialyzed FBS, 0.00702 µM	–	122	88.7
RPMI 5 mM glucose + 10% dialyzed FBS, 0.0211 µM	–	125	114
RPMI 5 mM glucose + 10% dialyzed FBS, 0.0632 µM	–	122	120
RPMI 5 mM glucose + 10% dialyzed FBS, 0.19 µM	–	119	107
RPMI 5 mM glucose + 10% dialyzed FBS, 0.569 µM	–	114	125
RPMI 5 mM glucose + 10% dialyzed FBS, 1.71 µM	–	128	108
RPMI 5 mM glucose + 10% dialyzed FBS, 5.12 µM	–	122	112
RPMI 5 mM glucose + 10% dialyzed FBS, 15.4 µM	–	109	116
RPMI 5 mM glucose + 10% dialyzed FBS, 46.1 µM	–	102	108

AUC of viability dose-response curve
Conditions	[4]	[5]	[6]
HPLM + 10% dialyzed FBS	462	469	462
RPMI 5 mM glucose + 10% FBS	456	456	456
RPMI 5 mM glucose + 10% dialyzed FBS	465	468	477
